The values below are quoted from earlier work in patent US20220305218A1, “LUMINAL OXYGEN DELIVERY AND DEVICE FOR TREATING DISEASES AND CONDITIONS ASSOCIATED WITH STRICT ANAEROBIC MICROORGANISMS” (priority 2021, published 2022).

With `Cc1ncc([N+](=O)[O-])n1CCO` [metronidazole], the resistance rate in the data set with C. difficile strains is reported as around 1%.

In the case of `O=O` [oxygen], the “time C. difficile can persist in a vegetative state” value with C. difficile (room air (20% oxygen, 160 mm Hg)) is around 24 h. In addition, the “oxygen partial pressure at which C. difficile is unable to grow” value in the data set on C. difficile (strict, obligate anaerobe) is given as at least 3 mm Hg.

With `CN[C@H](CC(C)C)C(=O)N[C@H]1C(=O)N[C@@H](CC(N)=O)C(=O)N[C@H]2C(=O)N[C@H]3C(=O)N[C@H](C(=O)N[C@H](C(=O)O)c4cc(O)cc(O)c4-c4cc3ccc4O)[C@H](O)c3ccc(c(Cl)c3)Oc3cc2cc(c3O[C@@H]2O[C@H](CO)[C@@H](O)[C@H](O)[C@H]2O[C@H]2C[C@](C)(N)[C@H](O)[C@H](C)O2)Oc2ccc(cc2Cl)[C@H]1O` [vancomycin], the resistance rate in the data set with C. difficile strains is reported as around 1%.
